Source: PubChem BioAssay (NCI)
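48-hour exposure; five concentrations; linearly interpolated endpoints. GI50: concentration for 50% inhibition of growth. TGI denotes the concentration required for complete inhibition of growth.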

How the values were obtained:
Assay in all cases: inhibition of tumour cell growth, NCI panel, 48 h
RPMI-8226 leukemia = test system: RPMI-8226 leukemia
LOX IMVI melanoma = test system: LOX IMVI melanoma
DMS 114 small cell lung = test system: DMS 114 small cell lung
HCT-116 colon = test system: HCT-116 colon
HL-60(TB) leukemia = test system: HL-60(TB) leukemia
HT29 colon = test system: HT29 colon
EKVX NSCLC = test system: EKVX NSCLC
SK-OV-3 ovarian = test system: SK-OV-3 ovarian
TK-10 renal = test system: TK-10 renal
NCI-H460 lung = test system: NCI-H460 lung
KM12 colon = test system: KM12 colon
UO-31 renal = test system: UO-31 renal
SK-MEL-2 melanoma = test system: SK-MEL-2 melanoma
SR leukemia = test system: SR leukemia
HCC-2998 colon = test system: HCC-2998 colon
RXF-631 renal = test system: RXF-631 renal
SF-268 CNS = test system: SF-268 CNS
SNB-78 CNS = test system: SNB-78 CNS
HCT-15 colon = test system: HCT-15 colon
ACHN renal = test system: ACHN renal
COLO 205 colon = test system: COLO 205 colon
SF-295 CNS = test system: SF-295 CNS
CCRF-CEM leukemia = test system: CCRF-CEM leukemia
SN12C renal = test system: SN12C renal
HOP-62 NSCLC = test system: HOP-62 NSCLC
M14 melanoma = test system: M14 melanoma
786-0 renal = test system: 786-0 renal
SK-MEL-28 melanoma = test system: SK-MEL-28 melanoma
LXFL 529 NSCLC = test system: LXFL 529 NSCLC
MOLT-4 leukemia = test system: MOLT-4 leukemia
DMS 273 small cell lung = test system: DMS 273 small cell lung
HOP-18 NSCLC = test system: HOP-18 NSCLC
DLD-1 colon = test system: DLD-1 colon
SK-MEL-5 melanoma = test system: SK-MEL-5 melanoma
MALME-3M melanoma = test system: MALME-3M melanoma
KM20L2 colon = test system: KM20L2 colon
SNB-75 CNS = test system: SNB-75 CNS
K-562 leukemia = test system: K-562 leukemia
U251 CNS = test system: U251 CNS
A549 NSCLC = test system: A549 NSCLC
SW-620 colon = test system: SW-620 colon
NCI-H226 lung = test system: NCI-H226 lung
SNB-19 CNS = test system: SNB-19 CNS
HOP-92 NSCLC = test system: HOP-92 NSCLC
OVCAR-5 ovarian = test system: OVCAR-5 ovarian
NCI-H23 lung = test system: NCI-H23 lung
OVCAR-3 ovarian = test system: OVCAR-3 ovarian
OVCAR-8 ovarian = test system: OVCAR-8 ovarian
UACC-257 melanoma = test system: UACC-257 melanoma
NCI-H522 lung = test system: NCI-H522 lung
XF 498 CNS = test system: XF 498 CNS
SF-539 CNS = test system: SF-539 CNS
M19-MEL melanoma = test system: M19-MEL melanoma
IGROV1 ovarian = test system: IGROV1 ovarian
UACC-62 melanoma = test system: UACC-62 melanoma
OVCAR-4 ovarian = test system: OVCAR-4 ovarian
CAKI-1 renal = test system: CAKI-1 renal
RXF 393 renal = test system: RXF 393 renal
A498 renal = test system: A498 renal

Question: Which results are given for `O=C1OC(=O)c2c1c(-c1ccccc1)cn2-c1ccc(Cl)cc1`?
Answer: TGI (RPMI-8226 leukemia): > 100000 nM; TGI (LOX IMVI melanoma): > 100000 nM; TGI (DMS 114 small cell lung): > 100000 nM; TGI (HCT-116 colon): > 100000 nM; TGI (HL-60(TB) leukemia): > 100000 nM; TGI (HT29 colon): > 100000 nM; TGI (EKVX NSCLC): > 100000 nM; TGI (SK-OV-3 ovarian): > 100000 nM; TGI (TK-10 renal): > 100000 nM; TGI (NCI-H460 lung): > 100000 nM; TGI (KM12 colon): > 100000 nM; TGI (UO-31 renal): > 100000 nM; TGI (SK-MEL-2 melanoma): > 100000 nM; TGI (SR leukemia): > 100000 nM; TGI (HCC-2998 colon): > 100000 nM; TGI (RXF-631 renal): > 100000 nM; TGI (SF-268 CNS): > 100000 nM; TGI (SNB-78 CNS): > 100000 nM; TGI (HCT-15 colon): > 100000 nM; TGI (ACHN renal): > 100000 nM; TGI (COLO 205 colon): 37500 nM; TGI (SF-295 CNS): > 100000 nM; TGI (CCRF-CEM leukemia): > 100000 nM; TGI (SN12C renal): > 100000 nM; TGI (HOP-62 NSCLC): > 100000 nM; TGI (M14 melanoma): > 100000 nM; TGI (786-0 renal): > 100000 nM; TGI (SK-MEL-28 melanoma): > 100000 nM; TGI (LXFL 529 NSCLC): > 100000 nM; TGI (MOLT-4 leukemia): > 100000 nM; TGI (DMS 273 small cell lung): > 100000 nM; TGI (HOP-18 NSCLC): > 100000 nM; TGI (DLD-1 colon): > 100000 nM; TGI (SK-MEL-5 melanoma): 27900 nM; TGI (MALME-3M melanoma): > 100000 nM; TGI (KM20L2 colon): > 100000 nM; TGI (SNB-75 CNS): > 100000 nM; TGI (K-562 leukemia): > 100000 nM; TGI (U251 CNS): > 100000 nM; TGI (A549 NSCLC): > 100000 nM; TGI (SW-620 colon): > 100000 nM; TGI (NCI-H226 lung): > 100000 nM; TGI (SNB-19 CNS): > 100000 nM; TGI (HOP-92 NSCLC): > 100000 nM; TGI (OVCAR-5 ovarian): > 100000 nM; TGI (NCI-H23 lung): > 100000 nM; TGI (OVCAR-3 ovarian): > 100000 nM; TGI (OVCAR-8 ovarian): > 100000 nM; TGI (UACC-257 melanoma): > 100000 nM; TGI (NCI-H522 lung): > 100000 nM; TGI (XF 498 CNS): > 100000 nM; TGI (SF-539 CNS): > 100000 nM; TGI (M19-MEL melanoma): > 100000 nM; TGI (IGROV1 ovarian): > 100000 nM

Question: Which results are given for `CCC[CH2][Sn]([CH2]CCC)([O]C(=O)c1c(F)cccc1F)[O]C(=O)c1c(F)cccc1F`?
Answer: GI50 (LOX IMVI melanoma): 353 nM; TGI (LOX IMVI melanoma): 1410 nM; GI50 (DMS 114 small cell lung): 214 nM; TGI (DMS 114 small cell lung): 602 nM; GI50 (HCT-116 colon): 1020 nM; TGI (HCT-116 colon): 2250 nM; GI50 (HL-60(TB) leukemia): 378 nM; TGI (HL-60(TB) leukemia): > 100000 nM; GI50 (HT29 colon): 1520 nM; TGI (HT29 colon): 2870 nM; GI50 (EKVX NSCLC): 1040 nM; TGI (EKVX NSCLC): 2220 nM; GI50 (SK-OV-3 ovarian): 1820 nM; TGI (SK-OV-3 ovarian): 3240 nM; GI50 (TK-10 renal): 956 nM; TGI (TK-10 renal): 2130 nM; GI50 (NCI-H460 lung): 1540 nM; TGI (NCI-H460 lung): 2900 nM; GI50 (KM12 colon): 1510 nM; TGI (KM12 colon): 2830 nM; GI50 (UO-31 renal): 1310 nM; TGI (UO-31 renal): 2590 nM; GI50 (SK-MEL-2 melanoma): 221 nM; TGI (SK-MEL-2 melanoma): 916 nM; GI50 (UACC-62 melanoma): 884 nM; TGI (UACC-62 melanoma): 2100 nM; GI50 (SR leukemia): 318 nM; TGI (SR leukemia): 2140 nM; GI50 (HCC-2998 colon): 1180 nM; TGI (HCC-2998 colon): 2410 nM; GI50 (SF-268 CNS): 565 nM; TGI (SF-268 CNS): 1830 nM; GI50 (SNB-78 CNS): 333 nM; TGI (SNB-78 CNS): 1470 nM; GI50 (HCT-15 colon): 1090 nM; TGI (HCT-15 colon): 2280 nM; GI50 (ACHN renal): 763 nM; TGI (ACHN renal): 2010 nM; GI50 (COLO 205 colon): 574 nM; TGI (COLO 205 colon): 1740 nM; GI50 (SF-295 CNS): 1560 nM; TGI (SF-295 CNS): 2900 nM; GI50 (OVCAR-4 ovarian): 1280 nM; TGI (OVCAR-4 ovarian): 2550 nM; GI50 (SN12C renal): 777 nM; TGI (SN12C renal): 2030 nM; GI50 (HOP-62 NSCLC): 2220 nM; TGI (HOP-62 NSCLC): 3690 nM; GI50 (M14 melanoma): 1080 nM; TGI (M14 melanoma): 2260 nM; GI50 (CAKI-1 renal): 380 nM; TGI (CAKI-1 renal): 1700 nM; GI50 (786-0 renal): 768 nM; TGI (786-0 renal): 2000 nM; GI50 (SK-MEL-28 melanoma): 599 nM; TGI (SK-MEL-28 melanoma): 1870 nM; GI50 (LXFL 529 NSCLC): 139 nM; TGI (LXFL 529 NSCLC): 318 nM; GI50 (MOLT-4 leukemia): 239 nM; TGI (MOLT-4 leukemia): 818 nM; GI50 (DMS 273 small cell lung): 1070 nM; TGI (DMS 273 small cell lung): 2270 nM; GI50 (HOP-18 NSCLC): 1890 nM; TGI (HOP-18 NSCLC): 3300 nM; GI50 (DLD-1 colon): 624 nM; TGI (DLD-1 colon): 1910 nM; GI50 (SK-MEL-5 melanoma): 1240 nM; TGI (SK-MEL-5 melanoma): 2520 nM; GI50 (MALME-3M melanoma): 462 nM; TGI (MALME-3M melanoma): 1800 nM; GI50 (RXF 393 renal): 242 nM; TGI (RXF 393 renal): 844 nM; GI50 (KM20L2 colon): 1610 nM; TGI (KM20L2 colon): 2980 nM; GI50 (SNB-75 CNS): 509 nM; TGI (SNB-75 CNS): 1820 nM; GI50 (K-562 leukemia): 355 nM; TGI (K-562 leukemia): > 100000 nM; GI50 (U251 CNS): 443 nM; TGI (U251 CNS): 1600 nM; GI50 (A549 NSCLC): 3120 nM; TGI (A549 NSCLC): 11000 nM; GI50 (SW-620 colon): 320 nM; TGI (SW-620 colon): 1230 nM; GI50 (NCI-H226 lung): 1890 nM; TGI (NCI-H226 lung): 3320 nM; GI50 (A498 renal): 967 nM; TGI (A498 renal): 2160 nM; GI50 (SNB-19 CNS): 1290 nM; TGI (SNB-19 CNS): 2560 nM; GI50 (HOP-92 NSCLC): 440 nM; TGI (HOP-92 NSCLC): 1810 nM; GI50 (OVCAR-5 ovarian): 1340 nM; TGI (OVCAR-5 ovarian): 2610 nM; GI50 (NCI-H23 lung): 439 nM; TGI (NCI-H23 lung): 1600 nM; GI50 (OVCAR-3 ovarian): 1140 nM; TGI (OVCAR-3 ovarian): 2360 nM; GI50 (OVCAR-8 ovarian): 1180 nM; TGI (OVCAR-8 ovarian): 2410 nM; GI50 (UACC-257 melanoma): 671 nM; TGI (UACC-257 melanoma): 1990 nM; GI50 (NCI-H522 lung): 90.5 nM; TGI (NCI-H522 lung): 213 nM; GI50 (XF 498 CNS): 1310 nM; TGI (XF 498 CNS): 2590 nM; GI50 (SF-539 CNS): 1020 nM; TGI (SF-539 CNS): 2200 nM; GI50 (M19-MEL melanoma): 364 nM; TGI (M19-MEL melanoma): 1430 nM; GI50 (IGROV1 ovarian): 1390 nM; TGI (IGROV1 ovarian): 3000 nM
